Experimental data reported in patent US7429482B2, “Screening tools for discovery of novel anabolic agents” (United States of America as represented by the Department …, priority 2005, dated 2008).

Columns and labels:
[1] = Acute denervation (0-14 days): muscle weights; assay type: in vivo; conditions: rat
Experimental: (§1) Male Wistar rats weighing 250 gm (Taconic Farms, Germantown, N.Y.) were provided food and water ad libitum and were housed in a temperature and humidity controlled environment providing a 12:12 hour day-night cycle. For surgical procedures, animals were anesthetized with ketamine/xylazine. The left sciatic nerve was exposed by blunt dissection, and a 1 to 2 mm piece of this nerve was excised just below the level of the femoral head. A sham surgery was performed on the right hind limb in which the sciatic nerve was exposed but was not transected. Model 2002 Alzet pumps were implanted subcutaneously on the back. […] A pellet containing 15 mg of testosterone (Innovative Research of America, Sarasota, Fla.) administered as a continuous infusion (5 mg/wk), or a pellet containing placebo, was inserted into a subcutaneous pouch. […] Because testosterone is known to have anabolic actions (Ferrando et al., Am J Physiol Endocrinol Metab 282: E601-E607, 2002; Mauras et al., J Clin Endocrinol Metab 83: 1886-1892, 1998; Urban et al., Am J Physiol 269: E820-E826, 1995), reductions in levels of this hormone could affect muscle mass and confound interpretation of the results. Animals were euthanized 14 days later by inhalation of carbon dioxide. Following removal of blood from the left ventricle for determination of serum testosterone concentration by radioimmunoassay (MP Biomedicals, Costa Mesa, Calif.), soleus, extensor digitorum longus (EDL), gastrocnemius and plantaris muscles were excised and weighed, then were flash frozen on dry ice and stored at −80° C.

myostatin = assay: Acute denervation: myostatin mRNA in EDL and soleus (qPCR); assay type: in vivo, rat
Experimental: as §1, with “Following removal of blood from the left ventricle for determination of serum testosterone concentration by radioimmunoassay (MP Biomedicals, Costa Mesa, Calif.), soleus, extensor digitorum longus (EDL), gastrocnemius and plantaris muscles were excised and weighed, then were flash frozen on dry ice and stored at −80° C.” left out
Total RNA was extracted from skeletal muscle (20 mg) by homogenization in guanidine thiocyanate using a Polytron followed by extraction using phenol-chloroform (Chomczynski and Sacchi, Anal Biochem 162: 156-159, 1987). […] Total RNA was then eluted and quantified by absorbance at 260 nm. […] Levels of gene expression in the denervated muscle were expressed as fold induction relative to muscle from the sham-denervated leg of animals administered vehicle. […] Fold-induction was determined using the 2^−ΔΔCt method, using expression of 18S RNA as the normalization control. […]

[2] = Testosterone levels after replacement in rats; assay type: in vivo; conditions: rat, testosterone 0.7 mg/day continuous infusion
Experimental: Male Wistar rats weighing 200-250 gm (Taconic Farms, Germantown, N.Y.) were provided food and water ad libitum and were housed in a temperature and humidity controlled environment providing a 12:12 hour day-night cycle. For surgical procedures, animals were anesthetized with ketamine/xylazine. The left sciatic nerve was exposed by blunt dissection, and a 1 to 2 mm piece of this nerve was excised just below the level of the femoral head. A sham surgery was performed on the right hind limb in which the sciatic nerve was exposed but was not transected. Twenty eight days later, animals were anesthetized, and Alzet pumps were implanted subcutaneously on the back. […] Testosterone levels after replacement were approximately 15 nM, a high-normal range for rats of this age. Animals were sacrificed 3, 7 or 28 days after implantation of the miniosmotic pumps by inhalation of carbon dioxide. Gastrocnemius muscles were excised and weighed, then flash frozen on dry ice and stored at −80° C.

MAFbx mRNA = MAFbx mRNA levels in AR6 / C2C12.AR cells (qPCR); assay type: cell-based, mouse; conditions: dexamethasone with concurrent testosterone
Experimental: (A) Rats were administered test agents as indicated in the figure for 7-days, at which time animals were sacrificed and MAFbx expression was determined in gastrocnemius muscles by qPCR. Data are mean values±SEM for at least 8 animals. * p<0.05 vs vehicle, t-test. (B) AR6 cells were seeded into 6-well plates and incubated overnight in growth medium. Medium was replaced with DMEM containing 2% horse serum followed by incubation for an additional 48 hours. Hormones or vehicle (EtOH) were added to the medium and cells were incubated overnight, at which time MAFbx mRNA levels were determined by qPCR and expressed as fold-induction versus levels in cells incubated with EtOH. Data are mean values±SEM for three determinations each performed in triplicate. * p<0.05 vs. EtOH (ANOVA). (C) Effect of testosterone on MAFbx mRNA half-life. C2C12.AR cells were incubated overnight in growth medium supplemented with testosterone or vehicle (EtOH). […] Levels of MAFbx mRNA are expressed as a percentage of those at time zero. […]
RNA was quantified by absorbance at 260 nm. […] Relative changes in expression were determined using the 2^−ΔΔCt method. Taqman Assay on Demand probes (Applied Biosystems) were used for all assays except rat 18S RNA, which was quantified using the following Assay on Demand Probes: Forward: […] […]

| SMILES | weights of muscles from sham-transected limbs ([1]; nandrolone 1.5 mg/kg/wk 14 days + testosterone replacement, not statistically significant) | weights of muscles from the denervated limb versus vehicle ([1]; nandrolone 1.5 mg/kg/wk, 14 days after sciatic transection) | effect on atrophy ([1]; nandrolone 7.5 or 37.5 mg/kg/week, same protocol) | myostatin expression (myostatin; denervated EDL) | myostatin expression (myostatin; sham-denervated EDL) | myostatin expression (myostatin; soleus) | testosterone levels after replacement [2] | MAFbx mRNA level versus cells exposed to ethanol only (MAFbx mRNA) |
| --- | --- | --- | --- | --- | --- | --- | --- | --- |
| C[C@]12CC[C@H]3[C@@H](CCC4=CC(=O)CC[C@@H]43)[C@@H]1CC[C@@H]2O [nandrolone] | tended to be increased | not significantly different | No effect | appeared to reduce | significantly reduced | did not appreciably alter |  |  |
| C[C@]12CC[C@H]3[C@@H](CCC4=CC(=O)CC[C@@]43C)[C@@H]1CC[C@@H]2O [testosterone] |  |  |  |  |  |  | approximately 15 nM | not significantly different |
